# According to patent US20090062388A1, “Use of acetyl L-carnitine for the preparation of a medication for the preventive therapy for pain” (Sigma-Tau Industrie Farmaceutiche Riunite S.p.A., priority 2001, published 2009):
# Assays:
# [1] = tested on: Male Swiss Webster mice; assay: Hot-plate test (thermal stimulus), licking latency; assay type: in vivo; conditions: for Hot plate Licking latency: single SC treatment 100 mg/kg
# Method: The first experiment was the hot-plate test.
# Male Swiss Webster mice weighing between 22 and 30 g were used.
# The test was carried out according to O'Callaghan and Holtzman in J. Pharmacol. Exp. Ther. 197: 533-537, 1976.
# According to this test, a stainless steel container is to be placed in a bain-marie at a temperature of 52.5° C.
# The mouse was removed from the hot plate immediately upon the first sign of painful stimulus. The maximum latency time registered on the hot plate was 45 seconds.
# The values of analgesia were determined at 15 minute-intervals.
# [2] = tested on: Male Swiss Webster mice; assay: Abdominal constriction test (acetic acid IP); assay type: in vivo; conditions: for Number of constrictions (0.3% acetic acid) / Number of constrictions (0.6% acetic acid): 3 mg/ml in drinking water
# Method: The second experiment was the abdominal constriction test.
# The abdominal constriction test was carried out according to Koster et al. in Fed. Proc. 18: 412, 1959.
# According to this test, an IP injection of 0.6% acetic acid solution is to be made 5 minutes before starting the observation, which lasted 10 minutes.
# In some experiments, the percentage of acetic acid was reduced by half (0.3%).
# [3] = tested on: M1 muscarinic receptor sub-type; assay: Hot plate: acetyl L-carnitine analgesia after anti-M1 antisense oligonucleotide ICV; assay type: in vivo, mice; conditions: Acetyl L-carnitine 100 mg/kg BID SC 7 days
# From the text: The observation that the analgesia induced by the acetyl L-carnitine is mediated by the M1 muscarinic receptor sub-type is confirmed by the application of the anti-sense strategy.
# [4] = tested on: Male Swiss Webster mice; assay: Rota-rod test (motor coordination); assay type: in vivo
# Method: The rota rod test was carried out by means of an apparatus consisting of a platform and a 3 cm-diameter rotating rod (16-20 r.p.m.) with a non-slipping surface.
# The integrity of the animals' motor coordination was determined according to the capacity of the mice to keep their balance on the rotating rod.
# At various intervals after the treatment, the parameter considered was the number of falls of the animal within a 30 second-observation (Vaught et al., Neuropharmacol., 24: 211, 1985).
# [5] = tested on: Male Swiss Webster mice; assay: Hole board test (spontaneous motility, exploratory activity); assay type: in vivo; conditions: 14-day sub-chronic treatment SC 100 mg/kg BID; 5 minutes on board
# Method: In the hole board test, the […] movements were recorded by two separate photocell systems, which recorded both the movements on the board (spontaneous motility) and how many times the mouse put its head into the holes on the surface (exploratory activity).
# The mice were placed on the board one at a time and left free to explore both the surface and the holes for 5 minutes.
# [6] = tested on: Male Swiss Webster mice; assay: Sleep induction test with pentobarbital; assay type: in vivo
# Method: In the sleep induction test with pentobarbital, the duration of the loss of the […] reflex was measured in the mice treated with pentobarbital (60 mg/kg IP).
# [7] = tested on: Male Swiss Webster mice; assay: Hyperalgesia induced by NMDA (hot plate); assay type: in vivo
# Method: This test was carried out in compliance with what described in the rats by Davies and Inturrisi in J. Pharmacol. Exp. Ther., 289: 1048-1053, 1999, but was applied to the mice by us.
# According to this test, the hyperalgesia, assessed through the hot plate test, is to be induced by intrathecal administration of an NMDA solution (1.64 μg/mouse; administered around 15 minutes after the last administration of acetyl L-carnitine).
# The reduction in the pain threshold, which reaches its peak 15 minutes after the injection of NMDA, disappears within 30 minutes from the administration.
# [8] = tested on: Male Swiss Webster mice; assay: Hyperalgesia induced by morphine withdrawal syndrome (hot plate)
# [9] = solution 3 mg/ml in bottle for 7 and 14 days
# [10] = pentobarbital 60 mg/kg IP, Acetyl L-carnitine 100 mg/kg BID SC 7 days, Piracetam 30 mg/kg IP
structure (smiles),measurement,setting,value
"CC(=O)O[C@H](CC(=O)[O-])C[N+](C)(C)C [Acetyl L-carnitine, acetyl L-carnitine]",Hot plate Licking latency,[1]; 8 h after treatment,14.9 ± 1.6 s
same,Hot plate Licking latency,[1]; before treatment,14.5 ± 0.9 s
same,pain threshold in hot-plate test,[1]; [9],no increase in the pain threshold was observed
same,Number of constrictions (0.3% acetic acid),[2]; sub-chronic treatment 7 days,12.7 ± 3.5
same,Number of constrictions (0.6% acetic acid),[2]; sub-chronic treatment 7 days,31.5 ± 4.0
same,Number of constrictions (0.3% acetic acid),[2]; sub-chronic treatment 14 days,11.9 ± 2.2
same,Number of constrictions (0.6% acetic acid),[2]; sub-chronic treatment 14 days,28.3 ± 5.1
same,"antinociceptive effect, abdominal constriction test","[2]; 0.6% acetic acid, 30 mg/kg IP (or SC), 18-day treatment (FIG. 3)",had no effect
same,"antinociceptive effect, abdominal constriction test","[2]; 0.6% acetic acid, 100 mg/kg BID, SC or IP, 14 days of treatment (FIG. 1)",exerted an antinociceptive effect
same,"antinociceptive effect, abdominal constriction test","[2]; 0.6% acetic acid, 100 mg/kg acute administration (SC or IP) or repeated for 7 days (FIG. 1)",had no effect at all
same,"antinociceptive effect, abdominal constriction test","[2]; small concentration of acid, 30 mg/kg, 14 days (FIG. 4)",the statistic significance was obtained after 14 days
same,pain threshold in abdominal constriction test (0.3 and 0.6%),[2]; [9],no increase in the pain threshold was observed
same,Hot plate Licking latency,"[3]; pre-treat. AODN 3 nmol ICV, 24 hours after last injection, before treatment",13.5 ± 0.8 s
same,Hot plate Licking latency,"[3]; pre-treat. AODN 3 nmol ICV, after treatment 15 min",16.6 ± 1.9 s
same,Hot plate Licking latency,"[3]; pre-treat. AODN 3 nmol ICV, after treatment 30 min",15.8 ± 1.8 s
same,Hot plate Licking latency,"[3]; pre-treat. AODN 3 nmol ICV, after treatment 45 min",15.8 ± 1.5 s
same,Hot plate Licking latency,"[3]; pre-treat. dODN 3 nmol ICV, 24 hours after last injection, before treatment",23.6 ± 1.1 s
same,Hot plate Licking latency,"[3]; pre-treat. dODN 3 nmol ICV, after treatment 15 min",22.6 ± 2.3 s
same,Hot plate Licking latency,"[3]; pre-treat. dODN 3 nmol ICV, after treatment 30 min",21.9 ± 1.5 s
same,Hot plate Licking latency,"[3]; pre-treat. dODN 3 nmol ICV, after treatment 45 min",22.3 ± 1.7 s
same,Motor coordination (rota-rod),"[4]; 100 mg/kg BID, SC or IP for 7 and 14 days",not different from motor coordination of the control mice
same,ROTA-ROD No. of falls in 30 seconds,"[4]; 7-day sub-chronic treatment IP 100 mg/kg BID, 15 min after treatment",2.2 ± 0.4
same,ROTA-ROD No. of falls in 30 seconds,"[4]; 7-day sub-chronic treatment IP 100 mg/kg BID, 30 min after treatment",1.5 ± 0.3
same,ROTA-ROD No. of falls in 30 seconds,"[4]; 7-day sub-chronic treatment IP 100 mg/kg BID, 45 min after treatment",1.1 ± 0.3
same,ROTA-ROD No. of falls in 30 seconds,"[4]; 7-day sub-chronic treatment IP 100 mg/kg BID, before treatment",3.6 ± 0.5
same,ROTA-ROD No. of falls in 30 seconds,"[4]; 14-day sub-chronic treatment IP 100 mg/kg BID, 15 min after treatment",2.9 ± 0.3
same,ROTA-ROD No. of falls in 30 seconds,"[4]; 14-day sub-chronic treatment IP 100 mg/kg BID, 30 min after treatment",1.7 ± 0.4
same,ROTA-ROD No. of falls in 30 seconds,"[4]; 14-day sub-chronic treatment IP 100 mg/kg BID, 45 min after treatment",1.0 ± 0.3
same,ROTA-ROD No. of falls in 30 seconds,"[4]; 14-day sub-chronic treatment IP 100 mg/kg BID, before treatment",3.9 ± 0.5
same,EXPLORATORY ACTIVITY No. of movements,[5],52.3 ± 6.5
same,LOCOMOTOR ACTIVITY No. of explorations,[5],24.0 ± 5.1
same,effect on pentobarbital sleep duration and induction times,"[6]; 100 mg/kg BID SC for 7 days, pentobarbital 60 mg/kg IP 24 hours after end of treatments",neither affected the duration of sleep nor the induction times
same,SLEEP Duration,[6]; [10],23.5 ± 3.4 min
same,SLEEP Induction time,[6]; [10],3.3 ± 2.1 min
same,effect on reduction in pain threshold induced by NMDA,"[7]; 30 mg/kg BID, IP or SC for 7 days (FIG. 7)",not found to be active
same,effect on reduction in pain threshold induced by NMDA,"[7]; 100 mg/kg BID, SC or IP for 7 days, NMDA 1.64 μg/mouse intrathecal (FIG. 7)",anti-nociceptive effect
same,reversal of hyperalgesia induced by morphine withdrawal syndrome,"[8]; one single administration, 5 hours and 30 minutes from replacement of morphine with water (FIG. 5bis)",not after one single administration
same,reversal of hyperalgesia induced by morphine withdrawal syndrome,"[8]; repeated treatment 100 mg/kg BID, IP or SC for 7 days (FIG. 5)",capable of reverting the hyperalgesia
